Data published in US12053479B2, “Transdermal treatment for erectile dysfunction” (Madera Pharmaceuticals, Inc., priority 2020, dated 2024).
Where two headings read alike, the source gives them in different places.

Tests used:
[1] = Drug solubility in individual excipients
[2] = In vitro permeation testing (IVPT), diffusion cell; settings: cumulative amount in receptor solution versus time (FIGS. 2-4)
Text: With reference to FIG. 1, in vitro skin permeation experiments used a diffusion cell designed to mimic the physiological and anatomical conditions of skin in situ. The diffusion cell included a donor compartment configured to receive the formulation, or solvent system, to be tested. A receptor compartment included a flow path for receptor solution, which was to be analyzed. Dermatomed skin was arranged between the donor compartment and receptor compartment. As such, a formulation comprising the solvent system having the drug is applied to the skin in the donor compartment. A portion of the drug permeated through the skin into the receptor solution, which was analyzed to determine drug concentration at several time periods, including 0.25, 0.5, 1, 1.5 2, 4, 6 and 8 hours. […]
The receptor solution was collected and analyzed as discussed. The cumulative amount per cm^2 of phentolamine, papaverine, and prostaglandin permeated into the receptor solution was calculated from drug concentrations measured in the receptor solution over time. The cumulative amount per cm^2 of phentolamine, papaverine, and prostaglandin at the final timepoint was calculated for each replicate. […] Means and standard errors were calculated and reported in figures and tables, including Tables 5 and 6 below.

[3] = in water, buffer solutions (pH 4 and 7) and glycerol

| Structure (SMILES) | Solubility (in words) ([1]; in ethanol and transcutol P) | Solubility (in words) [1, 3] | Amount permeated through the skin, SSAG02 with all of the drugs versus SSAG02 with the drug alone [2] | Saturated solubility (solvent system SSAG01, all three drugs combined) [% w/w] | Saturated solubility (solvent system SSAG01, drug added individually) [% w/w] | Saturated solubility (solvent system SSAG02, all three drugs combined) [% w/w] | Saturated solubility (solvent system SSAG02, drug added individually) [% w/w] | Saturated solubility (upon addition of phentolamine mesylate and prostaglandin E1, span over all solvent systems) | Solubility [1, 3] |
| --- | --- | --- | --- | --- | --- | --- | --- | --- | --- |
| CCCCC[C@H](O)/C=C/[C@H]1[C@H](O)CC(=O)[C@@H]1CCCCCCC(=O)O [Prostaglandin E1] | strongly soluble | poorly soluble |  |  |  |  |  |  |  |
| COc1ccc(Cc2nccc3cc(OC)c(OC)cc23)cc1OC.Cl [Papaverine HCl, papaverine hydrochloride] | poorly soluble | moderately soluble | much greater amount | 7.58 | 6.39 | 9.44 | 7.21 | 7.58-9.44 % w/w | 2-3 % w/w |
